Measured values reported in patent publication US6716574B2, “Osp-C derived peptide fragments” (Dako A/S, priority 1996, dated 2004).

What was measured:
[1] = tested on: IgM antibodies to OspC in sera from patients; experiment: Indirect streptavidin ELISA for IgM antibodies against carboxy-terminal OspC deca-peptide (peptide ELISA); assay type: binding, human
Method: Indirect Streptavidin ELISA for IgM Antibodies against Carboxy-terminal OspC Deca-peptide (Peptide ELISA)
Flat-bottom microdilution plates (Maxisorb; Nunc, Roskilde, Denmark) were coated with 100 μl of streptavidin (ZYMED, S. Avidinii) 2.5 μg/ml in citrate buffer (pH 5) and incubated overnight at 4° C. The plates were washed four times a one minute with phosphate buffered saline (PBS) containing 0.5 M NaCl and 0.1% (vol/vol) Tween 20 (pH 7.2), 100 μl of the biotinylated synthetic peptide
(prodiluted in PBS containing 0.37 M NaCl, 0.5% (vol/vol) Tween 20, and 1% (wt/vol) milk powder (pH 7.0)) was added to the wells and the plates were incubated overnight at 4° C. The plates were washed four times a one minute with PBS containing 0.5 M NaCl and 0.1% (vol/vol) Tween 20 (pH 7.2), and 100 μl of test serum diluted 1:200 in PBS containing 0.7 M NaCl, 0.1% (vol/vol) Tween 20, and 1% (wt/vol) milkpowder (pH 7, 2) was added to the wells and incubated for 2 hours at 20° C. on a rocker platform. The plates were washed four times à one minute with PBS containing 0.5 M NaCl and 0.1% (vol/vol) Tween 20 (pH 7.2), and 100 μl of peroxidase conjugated rabbit anti-human IgM (code P215; Dako-patts, Copenhagen, Denmark) diluted 1:1000 in PBS containing 0.5% Tween 20 and 1% milkpowder (pH 7.4) was added to the wells and incubated for 1 h at 20° C. The plates were washed four times à one minute with PBS containing 0.5 M NaCl and 0.1% (vol/vol) Tween 20 (pH 7.2), and 200 μl of the substrate o-phenylenediamine (0.33 mg/ml; Kem-En-Tec, Denmark, tablets of 10 mg) in citrate buffer (pH 5) with 0.04% (vol/vol) H2O2 was added to each well. After 15 minutes protected from light, the enzymatic reaction was stopped by the addition of 50 μl of 3 M H2SO4. The optical density (OD) at 492 nm was read spectrophotometrically on an Immuno Reader, Easy reader EAR 400 AC, SLT Labinstruments, AUSTRIA. Samples were tested in duplicate and retested if the two OD values differed more than 10% from the mean. To eliminate plate-to-plate and day-to-day variations, a reference serum pool based on seven western blot positive sera were included on every plate for construction of a standard dilution curve with a two fold dilution ranging from 1:200 to 1:6400. The OD value of every sample was adjusted to this standard curve. Positive and negative control sera were included on every plate. The positive control sera were diluted 1:200, 1:400 and 1:800 on every plate to check for parallelism between the standard reference curve and the dilution curve of the positive control sera. […]

[2] = tested on: IgM antibodies to OspC in sera from patients; experiment: Indirect ELISA for IgM antibodies to full-length and truncated recombinant OspC (rOspC ELISA); assay type: binding, human; details: for immunoassay results compared with rOspCfl from B. garinii: sera of Example 2
Method: Indirect ELISA for IgM Antibodies to Full-length and Truncated Recombinant OspC (rOspC ELISA)
Flat-bottom microdilution plates (Maxisorb; Nunc, Roskilde, Denmark) were coated with 100 μl of rOspC diluted in 0.05 M bicarbonate pH 9.6 for 1 hour at 20° C. on a rocker platform and thereafter overnight at 4° C. The optimum coating concentration was defined as the antigen dilution resulting in the highest ratio of the optical density (OD) between a positive and a negative control serum (P/N ratio). The plates were washed four times à one minute with PBS containing 0.5 M NaCL, and 0.1% (vol/vol) Tween 20 (pH 7.2) and unspecific protein binding was blocked with 100 μl 3% (wt/vol) milk powder in PBS for 1 hour. The plates were washed four times à one minute with PBS containing 0.5 M NaCL, and 0.1% (vol/vol) Tween 20 (pH 7.2). 100 μl of serum diluted 1:200 in PBS containing 0.1% (vol/vol) Tween 20, 0.02% NaN3 and 1% (wt/vol) milk powder was added to the wells and incubated for 2 h at 20° C. The plates were washed four times à one minute with PBS containing 0.5 M NaCL, and 0.1% (vol/vol) Tween 20 (pH 7.2) and 100 μl peroxidase conjugated rabbit anti-human immunoglobulin M (IgM) (Dakopats, Copenhagen, Denmark, code P-215) diluted 1:1000 in PBS pH 7.4 with 0.05% (vol/vol) Tween 20 and 1% (wt/vol) milk powder. After the incubation for 1 h at 20° C. the plates were washed four times à one minute with PBS containing 0.5 M NaCL, and 0.1% (vol/vol) Tween 20 (pH 7.2) and 200 μl of the substrate o-phenylenediamine (0.41 mg/ml; Sigma) in citrate buffer (pH 5) with 0.04% (vol/vol) H2O2) was added to each well. After 15 minutes protected from light, the enzymatic reaction was stopped by the addition of 50 μl of 3M H2SO4. The optical density (OD) at 492 nm was read spectrophotometrically (Immuno Reader, Easy reader EAR 400 AC—SLT Labinstruments, AUSTRIA). Samples were tested in duplicate and retested, if the two OD values differed more than 10% from the mean. To eliminate plate-to-plate and day-to-day variations, a reference serum pool based on seven western blot positive sera were included on every plate for construction of a standard dilution curve with a two fold dilution ranging from 1:200 to 1:6400. The OD value of every sample was adjusted to this standard curve. Positive and negative control sera were included on every plate. The positive control sera were diluted 1:200, 1:400 and 1:800 on every plate to check for parallelism between the standard reference curve and the dilution curve of the positive control sera.
The diagnostic cutoff OD was adjusted to be 98% specific for an IgM assay on the basis of serum samples from 100 healthy danish blood donors, and was 0.230 for the IgM assay.
In a preliminary setup, rOspCt was used in the above-described rOspC ELISA. Sera from 47 patients with EM, 50 with NB, 30 with ACA and 29 with syphilis were tested against rOspCt.
The capability of an immunological agent according to the present invention to react with sera from patients in various stages of Lyme borreliosis was evaluated against that of recombinant OspC derived from B. garinii and against conventional flagellum ELISAs (performed as described in Hansen K. et al. (1991) and Hansen K. et al. (1988)). These flagellum assays (testing for IgM and IgG antibodies to native B. burgdorferi flagellum) are commercially available, a μ-capture ELISA (DAKO, Denmark code K006), and an indirect IgG ELISA (DAKO, Denmark code K416). Both assays use flagella purified from strain DK1 belonging to the genospecies of B. afzelii. The ELISAs were performed according to the instructions of the manufacturer, and the results were expressed as optical density (OD) values. In both assays the diagnostic cut-off level was adjusted to a specificity of 98% based on the examination of 100 blood donors.

## 6-aminohexanoic acid-Pro-Val-Val-Ala-Glu-Ser-Pro-Lys-Lys-Pro [Peptide]
[1]; EM and NB sera, IgM, FIGS. 1-4
  OD titer compared with the rOspCfl ELISA: significantly higher
[1]; EM sera (n = 80), IgM, cutoff OD 0.460
  frequency (%) of positive sera, Peptide ELISA: n = 26 (32.5%)
[1]; EM, n = 80
  Peptide IgM negative and Flagellum IgM negative: n = 44 (55.00%)
  Peptide IgM negative and Flagellum IgM positive: n = 10 (12.50)
  Peptide IgM positive and Flagellum IgM negative: n = 6 (7.50%)
  Peptide IgM positive and Flagellum IgM positive: n = 20 (25.00%)
[1]; EM, n = 80, all sera
  Peptide IgM negative: n = 54 (67.5%)
  Peptide IgM positive: n = 26 (32.5%)
[1]; Early Lyme borreliosis (EM and NB) sera (n = 181), IgM
  frequency (%) of positive sera, Peptide ELISA: n = 72 (39.8%)
[1]; NB sera (n = 101), IgM
  frequency (%) of positive sera, Peptide ELISA: n = 46 (45.5%)
[1]; NB, n = 101
  Decapeptide IgM negative and Flagellum IgM negative: n = 25 (24.75%)
  Decapeptide IgM negative and Flagellum IgM positive: n = 30 (29.70%)
  Decapeptide IgM positive and Flagellum IgM negative: n = 12 (11.88%)
  Decapeptide IgM positive and Flagellum IgM positive: n = 33 (32.67%)
[1]; NB, n = 101, all sera
  Decapeptide IgM negative: n = 55 (54.5%)
  Decapeptide IgM positive: n = 46 (45.5%)
[1]; detecting early Lyme borreliosis (stage 1 and 2)
  sensitivity of the peptide ELISA relative to the rOspCfl ELISA: approximately 86%
[1]; first stage (EM)
  increase of overall sensitivity for IgM when adding peptide ELISA results to flagellum ELISA results: 7.5%
[1]; patients suffering from NB, FIG. 6
  accuracy (ROC plot) compared with the rOspCfl ELISA: more accurate
[1]; second stage (NB)
  increase of overall sensitivity for IgM when adding peptide ELISA results to flagellum ELISA results: 12%

B1: B. afzelii derived rOspCt: recombinant B. afzelii DK26 OspC truncate lacking the seven C-terminal amino acids (protein)
chain: CNNSGKGGDSASTNPADESAKGPNLTEISKKITDSNAFVLAVKEVETLVLSIDELAKKAIGQKIDNNNGLAALNNQNGSLLAGAYAISTLITEKLSKLKNLEELKTEIAKAKKCSEEFTNKLKSGHADLGKQDATDDHAKAAILKTHATTDKGAKEFKDLFESVEGLLKAAQVALTNSVKELTSPVV
modifications: left off: small tags and cut ends
notes: recombinant B. afzelii DK26 OspC truncate lacking the seven C-terminal amino acids
[2]; serum panel 1, IgM
  Positive rOspCt ELISA results: no positives

B2: rOspCfl from B. burgdorferi sensu stricto: full-length recombinant OspC from strain DK7 of Borrelia burgdorferi sensu stricto (SEQ ID NO: 5) (protein)
chain: MKKNTLSAILMTLFLFISCNNSGKDGNTSANSADESVKGPNLTEISKKITDSNAVLLAVKEVEALLSSIDELAKAIGKKIKNDGSLGDEANHNESLLAGAYTISTLITQKLSKLNGSEGLKEKIAAAKKCSEEFSTKLKDNHAQLGIQGVTDENAKKAILKANAAGKDKGVEELEKLSGSLESLSKAAKEMLANSVKELTSPVVVESPKKP
modifications: Borrelia burgdorferi sensu stricto
[2]
  immunoassay results compared with rOspCfl from B. garinii: almost identical picture

B3: rOspCfl from B. afzelii: full-length recombinant OspC from strain DK26 of Borrelia afzelii (SEQ ID NO: 7) (protein, listed as Borrelia afzelii)
chain: MKKNTLSAILMTLFLFISCNNSGKGGDSASTNPADESAKGPNLTEISKKITDSNAFVLAVKEVETLVLSIDELAKKAIGQKIDNNNGLAALNNQNGSLLAGAYAISTLITEKLSKLKNLEELKTEIAKAKKCSEEFTNKLKSGHADLGKQDATDDHAKAAILKTHATTDKGAKEFKDLFESVEGLLKAAQVALTNSVKELTSPVVAESPKKP
[2]
  immunoassay results compared with rOspCfl from B. garinii: almost identical picture

B4: rOspCt: recombinant B. garinii OspC truncate which lacks the 7 carboxyterminal amino acids (protein)
chain: CNNSGGDSASTNPDESAKGPNLTVISKKITDSNAFLLAVKEVEALLSSIDELSKAIGKKIKNDGTLDNEANRNESLIAGAYEISKLITQKLSVLNSEELKEKIKEAKDCSEKFTTKLKDSHAELGIQSVQDDNAKKAILKTHGTKDKGAKELEELFKSLESLSKAAQAALTNSVKELTNPVVAESPKKP
modifications: left off: small tags and cut ends
notes: recombinant B. garinii OspC truncate which lacks the 7 carboxyterminal amino acids
[2]; ACA sera (N = 30), IgM, B. garinii rOspCt
  Positive rOspCt ELISA results: n = 0 (0.00%)
[2]; EM and NB sera (n = 97), IgM, B. garinii rOspCt
  Positive rOspCt ELISA results: n = 4 (4.12%)
[2]; EM sera (n = 47), serum panel 1, IgM, B. garinii rOspCt, 98% specific cutoff
  Positive rOspCt ELISA results: n = 1 (2.12%)
[2]; NB sera (n = 50), serum panel 1, IgM, B. garinii rOspCt
  Positive rOspCt ELISA results: n = 3 (6.00%)
[2]; Syphilis control sera (n = 29), IgM, B. garinii rOspCt
  Positive rOspCt ELISA results: n = 5 (17.24%)
